{"source": "patent US20150105252A1", "about": "“SUBSTITUTED PYRAZOLES AS HERBICIDES” (E I DU PONT DE NEMOURS AND COMPANY, priority 2013, published 2015)", "key": {"kochia": {"system": "kochia", "experiment": "Test D postemergence", "type": "in vivo, Kochia scoparia", "settings": "scale 0 to 100", "description": "(§1) Seeds of plant species selected from bluegrass (annual bluegrass, Poa annua), blackgrass (Alopecurus myosuroides), canarygrass (littleseed canarygrass, Phalaris minor), chickweed (common chickweed, Stellaria media), galium (catchweed bedstraw, Galium aparine), bromegrass, downy (downy bromegrass, Bromus tectorum), field poppy (Papaver rhoeas), field violet (Viola arvensis), foxtail, green (green foxtail, Setaria viridis), deadnettle (henbit deadnettle, Lamium amplexicaule), ryegrass, Italian (Italian ryegrass, Lolium multiflorum), kochia (Kochia scoparia), lambsquarters (Chenopodium album), oilseed rape (Brassica napus), pigweed (redroot pigweed, Amaranthus retroflexus), chamomile (scentless chamomile, Matricaria inodora), speedwell (bird's-eye speedwell, Veronica persica), barley, spring (spring barley, Hordeum vulgare), wheat, spring (spring wheat, Triticum aestivum), buckwheat, wild (wild buckwheat, Polygonum convolvulus), mustard, wild (wild mustard, Sinapis arvensis), oat, wild (wild oat, Avena fatua), radish, wild (wild radish, Raphanus raphanistrum), windgrass (Apera spica-venti), Russian thistle (Salsola kali), barley, winter (winter barley, Hordeum vulgare), and wheat, winter (winter wheat, Triticum aestivum) were planted into a silt loam soil and treated preemergence with test chemicals formulated in a non-phytotoxic solvent mixture which included a surfactant.\n(§2) At the same time, these species were planted in pots containing Redi-Earth® planting medium (Scotts Company, 14111 Scottslawn Road, Marysville, Ohio 43041) comprising spaghnum peat moss, vermiculite, wetting agent and starter nutrients and treated with postemergence applications of the test chemicals formulated in the same manner. Plants ranged in height from 2 to 18 cm (1- to 4-leaf stage). Treated plants and controls were maintained in a controlled growth environment for 14 to 21 days after which time all species were compared to controls and visually evaluated. Plant response ratings, summarized in Table D, are based on a scale of 0 to 100 where 0 is no effect and 100 is complete control. A dash (-) response means no test result."}, "Italian ryegrass": {"system": "Italian ryegrass", "experiment": "Test F preemergence", "type": "in vivo, Lolium multiflorum", "outline": "(§3)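 Plant response is scored by eye relative to controls on a 0 to 100 scale, where 100 means complete control. Preemergence applications were made to seeded silt loam; postemergence ones to seedlings 2 to 18 cm high. Greenhouse holding time was 14 to 21 days.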"}, "bluegrass": {"system": "bluegrass", "experiment": "Test D preemergence", "type": "in vivo, Poa annua", "settings": "scale 0 to 100", "outline": "(§4)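 Pre: sown in silt loam, sprayed at once. Post: grown in peat-moss/vermiculite mix, sprayed at 1–4 leaves (2–18 cm). Formulation: non-phytotoxic solvent + surfactant. Read-out: visual 0–100 vs controls, 14–21 d.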"}, "foxtail, green [1]": {"system": "foxtail, green", "experiment": "Test D postemergence", "type": "in vivo, Setaria viridis", "settings": "scale 0 to 100", "outline": "as §4"}, "field violet": {"system": "field violet", "experiment": "Test D postemergence", "type": "in vivo, Viola arvensis", "settings": "scale 0 to 100", "outline": "as §4"}, "Surinam grass": {"system": "Surinam grass", "experiment": "Test F preemergence", "type": "in vivo, Brachiaria decumbens", "description": "(§5) Seeds of plant species selected from corn (Zea mays), soybean (Glycine max), velvetleaf (Abutilon theophrasti), lambsquarters (Chenopodium album), wild poinsettia (Euphorbia heterophylla), pigweed, palmer (palmer pigweed, Amaranthus palmeri), common waterhemp (Amaranthus rudis), surinam grass (Brachiaria decumbens), large crabgrass (Digitaria sanguinalis), crabgrass, Brazil (Brazilian crabgrass, Digitaria horizontalis), fall panicum (Panicum dichotomiflorum), giant foxtail (Setaria faberii), green foxtail (Setaria viridis), goosegrass (Eleusine indica), johnsongrass (Sorghum halepense), common ragweed (Ambrosia elation), barnyardgrass (Echinochloa crus-galli), southern sandbur (Cenchrus echinatus), arrowleaf sida (Sida rhombifolia), Italian ryegrass (Lolium multiflorum), dayflower, VA (Virginia (VA) dayflower, Commelina virginica), field bindweed (Convolvulus arvensis), cocklebur (common cocklebur, Xanthium strumarium), morningglory (Ipomoea coccinea), nightshade (eastern black nightshade, Solanum ptycanthum), kochia (Kochia scoparia), yellow nutsedge (Cyperus esculentus), and hairy beggarticks (Bidens pilosa), were planted into a silt loam soil and treated preemergence with test chemicals formulated in a non-phytotoxic solvent mixture which included a surfactant.\n(§6) At the same time, plants from these crop and weed species and also horseweed (Canada horseweed, Conyza canadensis), smartweed (ladysthumb smartweed, Polygonum persicaria), waterhemp_RES1, (ALS & Triazine resistant common waterhemp, Amaranthus rudis), and waterhemp_RES2, (ALS & HPPD resistant common waterhemp, Amaranthus rudis) were treated with postemergence applications of test chemicals formulated in the same manner. Plants ranged in height from 2 to 18 cm for postemergence treatments (1- to 4-leaf stage). Treated plants and controls were maintained in a greenhouse for 14 to 21 days, after which time all species were compared to controls and visually evaluated. Plant response ratings, summarized in Table F, are based on a scale of 0 to 100 where 0 is no effect and 100 is complete control. A dash (-) response means no test result."}, "crabgrass, Brazil": {"system": "crabgrass, Brazil", "experiment": "Test F preemergence", "type": "in vivo, Digitaria horizontalis", "description": "as §5, §6"}, "common ragweed": {"system": "common ragweed", "experiment": "Test F preemergence", "type": "in vivo, Ambrosia elation", "outline": "as §3"}, "lambsquarters": {"system": "lambsquarters", "experiment": "Test D postemergence", "type": "in vivo, Chenopodium album", "settings": "scale 0 to 100", "outline": "as §4"}, "pigweed [2]": {"system": "pigweed", "experiment": "Test D preemergence", "type": "in vivo, Amaranthus retroflexus", "settings": "scale 0 to 100", "description": "as §1, §2"}, "canarygrass": {"system": "canarygrass", "experiment": "Test D preemergence", "type": "in vivo, Phalaris minor", "settings": "scale 0 to 100", "description": "as §1, §2"}, "pigweed [3]": {"system": "pigweed", "experiment": "Test D postemergence", "type": "in vivo, Amaranthus retroflexus", "settings": "scale 0 to 100", "outline": "as §4"}, "foxtail, green [4]": {"system": "foxtail, green", "experiment": "Test D preemergence", "type": "in vivo, Setaria viridis", "settings": "scale 0 to 100", "outline": "as §4"}, "speedwell": {"system": "speedwell", "experiment": "Test D postemergence", "type": "in vivo, Veronica persica", "settings": "scale 0 to 100", "outline": "as §4"}, "[5]": {"settings": "Preemergence, 31 g ai/ha, scale 0 to 100"}, "[6]": {"settings": "Preemergence, 62 g ai/ha, scale 0 to 100"}, "[7]": {"settings": "Preemergence, 125 g ai/ha, scale 0 to 100"}, "[8]": {"settings": "preemergence, 8 g ai/ha, scale 0 to 100, 100 is complete control"}, "[9]": {"settings": "preemergence, 16 g ai/ha, scale 0 to 100, 100 is complete control"}}}
{"molecule": "CCc1cc(C(=O)NCC(F)(F)F)nn1Cc1ccnc(C(F)(F)F)c1", "note": "[Compound 78, 5-ethyl-N-(2,2,2-trifluoroethyl)-1-[[(2-trifluoromethyl)-4-pyridinyl]methyl]-1H-pyrazole-3-carboxamide]", "values": [{"measurement": "Kochia plant response rating", "setting": "kochia; Postemergence, 31 g ai/ha", "value": 75}, {"measurement": "Kochia plant response rating", "setting": "kochia; Postemergence, 125 g ai/ha", "value": 80}, {"measurement": "Kochia plant response rating", "setting": "kochia; Postemergence, 250 g ai/ha", "value": 75}, {"measurement": "Kochia plant response rating", "setting": "kochia; postemergence, 62 g ai/ha", "value": 80}, {"measurement": "Plant response rating, Italian Ryegrass", "setting": "Italian ryegrass; [5]", "value": 5}, {"measurement": "Plant response rating, Italian Ryegrass", "setting": "Italian ryegrass; [6]", "value": 60}, {"measurement": "Plant response rating, Italian Ryegrass", "setting": "Italian ryegrass; [7]", "value": 90}, {"measurement": "Plant response rating, Italian Ryegrass", "setting": "Italian ryegrass; [8]", "value": 0}, {"measurement": "Plant response rating, Italian Ryegrass", "setting": "Italian ryegrass; [9]", "value": 0}, {"measurement": "Plant response rating, Bluegrass", "setting": "bluegrass; 31 g ai/ha", "value": 50}, {"measurement": "Plant response rating, Bluegrass", "setting": "bluegrass; 62 g ai/ha", "value": 80}, {"measurement": "Plant response rating, Bluegrass", "setting": "bluegrass; 125 g ai/ha", "value": 95}, {"measurement": "Plant response rating, Bluegrass", "setting": "bluegrass; 250 g ai/ha", "value": 100}, {"measurement": "Foxtail, Green plant response rating", "setting": "foxtail, green [1]; Postemergence, 31 g ai/ha", "value": 25}, {"measurement": "Foxtail, Green plant response rating", "setting": "foxtail, green [1]; Postemergence, 125 g ai/ha", "value": 70}, {"measurement": "Foxtail, Green plant response rating", "setting": "foxtail, green [1]; Postemergence, 250 g ai/ha", "value": 80}, {"measurement": "Foxtail, Green plant response rating", "setting": "foxtail, green [1]; postemergence, 62 g ai/ha", "value": 60}, {"measurement": "Field Violet plant response rating", "setting": "field violet; Postemergence, 31 g ai/ha", "value": 30}, {"measurement": "Field Violet plant response rating", "setting": "field violet; Postemergence, 125 g ai/ha", "value": 60}, {"measurement": "Field Violet plant response rating", "setting": "field violet; Postemergence, 250 g ai/ha", "value": 65}, {"measurement": "Field Violet plant response rating", "setting": "field violet; postemergence, 62 g ai/ha", "value": 40}, {"measurement": "Plant response rating, Surinam Grass", "setting": "Surinam grass; [5]", "value": 50}, {"measurement": "Plant response rating, Surinam Grass", "setting": "Surinam grass; [6]", "value": 75}, {"measurement": "Plant response rating, Surinam Grass", "setting": "Surinam grass; [7]", "value": 100}, {"measurement": "Plant response rating, Surinam Grass", "setting": "Surinam grass; [8]", "value": 20}, {"measurement": "Plant response rating, Surinam Grass", "setting": "Surinam grass; [9]", "value": 20}, {"measurement": "Plant response rating, Crabgrass, Brazil", "setting": "crabgrass, Brazil; [5]", "value": 100}, {"measurement": "Plant response rating, Crabgrass, Brazil", "setting": "crabgrass, Brazil; [6]", "value": 100}, {"measurement": "Plant response rating, Crabgrass, Brazil", "setting": "crabgrass, Brazil; [7]", "value": 100}, {"measurement": "Plant response rating, Crabgrass, Brazil", "setting": "crabgrass, Brazil; [8]", "value": 30}, {"measurement": "Plant response rating, Crabgrass, Brazil", "setting": "crabgrass, Brazil; [9]", "value": 70}, {"measurement": "Plant response rating, Common Ragweed", "setting": "common ragweed; [5]", "value": 90}, {"measurement": "Plant response rating, Common Ragweed", "setting": "common ragweed; [6]", "value": 98}, {"measurement": "Plant response rating, Common Ragweed", "setting": "common ragweed; [7]", "value": 100}, {"measurement": "Plant response rating, Common Ragweed", "setting": "common ragweed; [8]", "value": 0}, {"measurement": "Plant response rating, Common Ragweed", "setting": "common ragweed; [9]", "value": 30}, {"measurement": "Lambsquarters plant response rating", "setting": "lambsquarters; Postemergence, 31 g ai/ha", "value": 20}, {"measurement": "Lambsquarters plant response rating", "setting": "lambsquarters; Postemergence, 125 g ai/ha", "value": 80}, {"measurement": "Lambsquarters plant response rating", "setting": "lambsquarters; Postemergence, 250 g ai/ha", "value": 80}, {"measurement": "Lambsquarters plant response rating", "setting": "lambsquarters; postemergence, 62 g ai/ha", "value": 60}, {"measurement": "Plant response rating, Pigweed", "setting": "pigweed [2]; 31 g ai/ha", "value": 100}, {"measurement": "Plant response rating, Pigweed", "setting": "pigweed [2]; 62 g ai/ha", "value": 100}, {"measurement": "Plant response rating, Pigweed", "setting": "pigweed [2]; 125 g ai/ha", "value": 100}, {"measurement": "Plant response rating, Pigweed", "setting": "pigweed [2]; 250 g ai/ha", "value": 100}, {"measurement": "Plant response rating, Canarygrass", "setting": "canarygrass; 31 g ai/ha", "value": 15}, {"measurement": "Plant response rating, Canarygrass", "setting": "canarygrass; 62 g ai/ha", "value": 30}, {"measurement": "Plant response rating, Canarygrass", "setting": "canarygrass; 125 g ai/ha", "value": 90}, {"measurement": "Plant response rating, Canarygrass", "setting": "canarygrass; 250 g ai/ha", "value": 100}, {"measurement": "Pigweed plant response rating", "setting": "pigweed [3]; Postemergence, 31 g ai/ha", "value": 70}, {"measurement": "Pigweed plant response rating", "setting": "pigweed [3]; Postemergence, 125 g ai/ha", "value": 80}, {"measurement": "Pigweed plant response rating", "setting": "pigweed [3]; Postemergence, 250 g ai/ha", "value": 85}, {"measurement": "Pigweed plant response rating", "setting": "pigweed [3]; postemergence, 62 g ai/ha", "value": 75}, {"measurement": "Plant response rating, Foxtail, Green", "setting": "foxtail, green [4]; 31 g ai/ha", "value": 50}, {"measurement": "Plant response rating, Foxtail, Green", "setting": "foxtail, green [4]; 62 g ai/ha", "value": 100}, {"measurement": "Plant response rating, Foxtail, Green", "setting": "foxtail, green [4]; 125 g ai/ha", "value": 100}, {"measurement": "Plant response rating, Foxtail, Green", "setting": "foxtail, green [4]; 250 g ai/ha", "value": 100}, {"measurement": "Speedwell plant response rating", "setting": "speedwell; Postemergence, 31 g ai/ha", "value": 45}, {"measurement": "Speedwell plant response rating", "setting": "speedwell; Postemergence, 125 g ai/ha", "value": 80}, {"measurement": "Speedwell plant response rating", "setting": "speedwell; Postemergence, 250 g ai/ha", "value": 90}, {"measurement": "Speedwell plant response rating", "setting": "speedwell; postemergence, 62 g ai/ha", "value": 60}]}
